Experimental data from ChEMBL document CHEMBL5303304, “EUbOPEN Chemogenomics Library - IncuCyte” (2023).

Columns and labels:
Format in all cases: toxicity, cell-based
U2OS = assay: Incucyte cell viability with U2OS; conditions: human, 10 µM, compound concentration 10 uM
HEK-293T = assay: Incucyte cell viability with HEK293T; conditions: human, 10 µM, compound concentration 10 uM
Fibroblast = assay: Incucyte cell viability with human fibroblast; conditions: 10 µM, compound concentration 10 uM
Also: unitless GR value; below 1 slowed growth and below 0 cell loss.

For `Cl.Cl.NC1(c2ccc(-c3nc4ccn5c(=O)[nH]nc5c4cc3-c3ccccc3)cc2)CCC1`, the “Growth Rate” value (U2OS; 24 h, replicate number 1) was 1, the “Growth Rate” value (HEK-293T; 6 h, replicate number 1) was -0.64 and the “Growth Rate” value (HEK-293T; 6 h, replicate number 2) was -0.68. The “Growth Rate” value (HEK-293T; 12 h, replicate number 1) was -0.64, the “Growth Rate” value (HEK-293T; 12 h, replicate number 2) was -0.42 and the “Growth Rate” value (HEK-293T; 18 h, replicate number 1) was -0.54. The “Growth Rate” value (HEK-293T; 18 h, replicate number 2) was -0.27, the “Growth Rate” value (HEK-293T; 24 h, replicate number 1) was -0.48 and the “Growth Rate” value (HEK-293T; 24 h, replicate number 2) was -0.24. The “Growth Rate” value (Fibroblast; 6 h, replicate number 1) was -0.87, the “Growth Rate” value (Fibroblast; 6 h, replicate number 2) was -1 and the “Growth Rate” value (Fibroblast; 12 h, replicate number 1) was -1. The “Growth Rate” value (Fibroblast; 12 h, replicate number 2) was -0.83, the “Growth Rate” value (Fibroblast; 18 h, replicate number 2) was -0.54 and the “Growth Rate” value (Fibroblast; 24 h, replicate number 2) was -0.32.

In the case of `CCN1CCN(Cc2ccc(NC(=O)c3ccc(C)c(Oc4ccnc5[nH]ccc45)c3)cc2C(F)(F)F)CC1.Cl.Cl.Cl.O`, the “Growth Rate” value (U2OS; 0 h, replicate number 1) is reported as -0.12, the “Growth Rate” value (U2OS; 0 h, replicate number 2) is reported as -0.97 and the “Growth Rate” value (U2OS; 6 h, replicate number 2) is reported as 0.57. The “Growth Rate” value (U2OS; 12 h, replicate number 1) was 0.84, the “Growth Rate” value (U2OS; 12 h, replicate number 2) was 0.38 and the “Growth Rate” value (U2OS; 18 h, replicate number 1) was 0.36. For the same compound, the “Growth Rate” value (U2OS; 18 h, replicate number 2) was 0.15, the “Growth Rate” value (U2OS; 24 h, replicate number 1) was 0.17 and the “Growth Rate” value (U2OS; 24 h, replicate number 2) was 0.04. The “Growth Rate” value (HEK-293T; 6 h, replicate number 1) was -0.97, the “Growth Rate” value (HEK-293T; 6 h, replicate number 2) was -0.99 and the “Growth Rate” value (HEK-293T; 12 h, replicate number 1) was -0.89. The “Growth Rate” value (HEK-293T; 12 h, replicate number 2) was -0.8, the “Growth Rate” value (HEK-293T; 18 h, replicate number 1) was -0.7 and the “Growth Rate” value (HEK-293T; 18 h, replicate number 2) was -0.55. The “Growth Rate” value (HEK-293T; 24 h, replicate number 1) was -0.63, the “Growth Rate” value (HEK-293T; 24 h, replicate number 2) was -0.43 and the “Growth Rate” value (Fibroblast; 6 h, replicate number 1) was -0.67. The “Growth Rate” value (Fibroblast; 12 h, replicate number 1) was -1, the “Growth Rate” value (Fibroblast; 12 h, replicate number 2) was 0.02 and the “Growth Rate” value (Fibroblast; 18 h, replicate number 2) was -0.03. For the same compound, the “Growth Rate” value (Fibroblast; 24 h, replicate number 2) was -0.05.

In the case of `COc1ccc(CSc2nnc(-c3ccc4ncsc4c3)o2)cc1C(F)(F)F`, the “Growth Rate” value (U2OS; 0 h, replicate number 1) is reported as -0.97, the “Growth Rate” value (U2OS; 0 h, replicate number 2) is reported as 0.81 and the “Growth Rate” value (U2OS; 6 h, replicate number 1) is reported as -0.59. For the same compound, the “Growth Rate” value (U2OS; 6 h, replicate number 2) was 0.78, the “Growth Rate” value (U2OS; 12 h, replicate number 2) was 0.87 and the “Growth Rate” value (U2OS; 18 h, replicate number 2) was -0.67. The “Growth Rate” value (U2OS; 24 h, replicate number 2) was 0.95, the “Growth Rate” value (HEK-293T; 6 h, replicate number 2) was 0.47 and the “Growth Rate” value (HEK-293T; 12 h, replicate number 2) was 0.75. For the same compound, the “Growth Rate” value (HEK-293T; 18 h, replicate number 2) was 0.76, the “Growth Rate” value (HEK-293T; 24 h, replicate number 1) was 0.95 and the “Growth Rate” value (HEK-293T; 24 h, replicate number 2) was 0.76. For the same compound, the “Growth Rate” value (Fibroblast; 0 h, replicate number 1) was -1, the “Growth Rate” value (Fibroblast; 6 h, replicate number 1) was 0.92 and the “Growth Rate” value (Fibroblast; 6 h, replicate number 2) was 0.49. The “Growth Rate” value (Fibroblast; 12 h, replicate number 1) was 0.88, the “Growth Rate” value (Fibroblast; 12 h, replicate number 2) was 0.64 and the “Growth Rate” value (Fibroblast; 18 h, replicate number 1) was 0.68. For the same compound, the “Growth Rate” value (Fibroblast; 18 h, replicate number 2) was 0.71, the “Growth Rate” value (Fibroblast; 24 h, replicate number 1) was 0.64 and the “Growth Rate” value (Fibroblast; 24 h, replicate number 2) was 0.84.

With `O=C1CCCc2[nH]c(-c3ccnc(NCC4CC4)c3)c(Nc3ccccc3)c21` the “Growth Rate” value (U2OS; 0 h, replicate number 1) was 0.75, the “Growth Rate” value (U2OS; 6 h, replicate number 1) was 0.51 and the “Growth Rate” value (U2OS; 12 h, replicate number 1) was 0.68. The “Growth Rate” value (U2OS; 18 h, replicate number 1) was 0.72, the “Growth Rate” value (U2OS; 24 h, replicate number 1) was 0.59 and the “Growth Rate” value (U2OS; 24 h, replicate number 2) was 1. For the same compound, the “Growth Rate” value (HEK-293T; 6 h, replicate number 2) was 0.41, the “Growth Rate” value (HEK-293T; 12 h, replicate number 2) was 0.66 and the “Growth Rate” value (HEK-293T; 18 h, replicate number 1) was 0.94. The “Growth Rate” value (HEK-293T; 18 h, replicate number 2) was 0.62, the “Growth Rate” value (HEK-293T; 24 h, replicate number 1) was 0.88 and the “Growth Rate” value (HEK-293T; 24 h, replicate number 2) was 0.7. For the same compound, the “Growth Rate” value (Fibroblast; 0 h, replicate number 1) was -1, the “Growth Rate” value (Fibroblast; 6 h, replicate number 1) was -0.03 and the “Growth Rate” value (Fibroblast; 12 h, replicate number 1) was 0.34. The “Growth Rate” value (Fibroblast; 12 h, replicate number 2) was 0.57, the “Growth Rate” value (Fibroblast; 18 h, replicate number 1) was 0.49 and the “Growth Rate” value (Fibroblast; 18 h, replicate number 2) was 0.89. The “Growth Rate” value (Fibroblast; 24 h, replicate number 1) was 0.45 and the “Growth Rate” value (Fibroblast; 24 h, replicate number 2) was 0.88.

With `CNC(=O)c1ccc2c(c1)NC(=O)/C2=C(\Nc1ccc(CN2CCCCC2)cc1)c1ccccc1.Cl.O` the “Growth Rate” value (U2OS; 0 h, replicate number 1) was -1, the “Growth Rate” value (U2OS; 12 h, replicate number 1) was 0.94 and the “Growth Rate” value (U2OS; 18 h, replicate number 1) was 0.82. The “Growth Rate” value (U2OS; 24 h, replicate number 1) was 0.89, the “Growth Rate” value (HEK-293T; 6 h, replicate number 2) was 0.72 and the “Growth Rate” value (HEK-293T; 18 h, replicate number 2) was 0.71. The “Growth Rate” value (HEK-293T; 24 h, replicate number 1) was 1, the “Growth Rate” value (HEK-293T; 24 h, replicate number 2) was 0.54 and the “Growth Rate” value (Fibroblast; 0 h, replicate number 1) was -1. The “Growth Rate” value (Fibroblast; 24 h, replicate number 2) was 0.78.

With `CC1CNCCc2c1nc1ccnn1c2N1CC(C(=O)N2CCC(C)(C)C2)C1` (stereo not drawn) the “Growth Rate” value (U2OS; 0 h, replicate number 1) was 0.03, the “Growth Rate” value (U2OS; 6 h, replicate number 1) was 0.99 and the “Growth Rate” value (U2OS; 12 h, replicate number 1) was 0.75. For the same compound, the “Growth Rate” value (U2OS; 18 h, replicate number 1) was 0.86, the “Growth Rate” value (U2OS; 24 h, replicate number 1) was 0.98 and the “Growth Rate” value (HEK-293T; 6 h, replicate number 2) was 0.99. For the same compound, the “Growth Rate” value (Fibroblast; 0 h, replicate number 1) was -1, the “Growth Rate” value (Fibroblast; 6 h, replicate number 1) was 0.73 and the “Growth Rate” value (Fibroblast; 6 h, replicate number 2) was -0.38. The “Growth Rate” value (Fibroblast; 12 h, replicate number 1) was 0.56, the “Growth Rate” value (Fibroblast; 12 h, replicate number 2) was 0.76 and the “Growth Rate” value (Fibroblast; 18 h, replicate number 1) was 0.7. The “Growth Rate” value (Fibroblast; 18 h, replicate number 2) was 0.74, the “Growth Rate” value (Fibroblast; 24 h, replicate number 1) was 0.84 and the “Growth Rate” value (Fibroblast; 24 h, replicate number 2) was 0.97.

For `CCN1CCN(Cc2ccc(NC(=O)c3ccc(C)c(NC(=O)c4cncc(-c5cccs5)c4)c3)cc2C(F)(F)F)CC1`, the “Growth Rate” value (U2OS; 0 h, replicate number 1) was -0.74, the “Growth Rate” value (U2OS; 0 h, replicate number 2) was -0.23 and the “Growth Rate” value (U2OS; 6 h, replicate number 1) was -0.87. The “Growth Rate” value (U2OS; 6 h, replicate number 2) was -0.47, the “Growth Rate” value (U2OS; 12 h, replicate number 1) was -0.52 and the “Growth Rate” value (U2OS; 12 h, replicate number 2) was -0.42. For the same compound, the “Growth Rate” value (U2OS; 18 h, replicate number 1) was -0.59, the “Growth Rate” value (U2OS; 18 h, replicate number 2) was -0.53 and the “Growth Rate” value (U2OS; 24 h, replicate number 1) was -0.6. The “Growth Rate” value (U2OS; 24 h, replicate number 2) was -0.55, the “Growth Rate” value (HEK-293T; 6 h, replicate number 1) was -0.97 and the “Growth Rate” value (HEK-293T; 6 h, replicate number 2) was -0.99. The “Growth Rate” value (HEK-293T; 12 h, replicate number 1) was -0.9, the “Growth Rate” value (HEK-293T; 12 h, replicate number 2) was -0.83 and the “Growth Rate” value (HEK-293T; 18 h, replicate number 1) was -0.73. For the same compound, the “Growth Rate” value (HEK-293T; 18 h, replicate number 2) was -0.61, the “Growth Rate” value (HEK-293T; 24 h, replicate number 1) was -0.6 and the “Growth Rate” value (HEK-293T; 24 h, replicate number 2) was -0.41. The “Growth Rate” value (Fibroblast; 0 h, replicate number 2) was -0.99, the “Growth Rate” value (Fibroblast; 6 h, replicate number 2) was -1 and the “Growth Rate” value (Fibroblast; 12 h, replicate number 2) was -0.76. For the same compound, the “Growth Rate” value (Fibroblast; 18 h, replicate number 1) was -0.92, the “Growth Rate” value (Fibroblast; 18 h, replicate number 2) was -0.54 and the “Growth Rate” value (Fibroblast; 24 h, replicate number 1) was -0.74. The “Growth Rate” value (Fibroblast; 24 h, replicate number 2) was -0.41.
